The target in assay [1] is His-tagged KRAS G12D protein (Homo sapiens, UniProt P01116, G12D). Kind of assay: KRAS G12D TR-FRET Assay. It counts as binding. The essentials:
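His-KRAS G12D (20 nM) was preincubated with titrated compound for 30 min at RT in HEPES pH 7.4 buffer with MgCl2, 10 μM GDP. Biotin-KRPep-2d (20 nM) was then added for 1 h, followed by Eu-anti-His/streptavidin-d2 for 1 h. The 665/615 nm TR-FRET ratio was fitted 4-parameter to give IC50.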

Assay [2] relates to Phosphorylation of ERK1/2 in AsPC-1 cells. Kind of assay: Phospho-ERK1/2 MSD Assay. It counts as cell-based. The method, boiled down: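 Phospho-ERK1/2 was quantified by MSD whole-cell lysate immunoassay in RIPA lysates made with protease/phosphatase inhibitors. A 4-parameter logistic model gave IC50.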
Assay [3] concerns the target GDP-bound KRAS protein (aa 1-169), containing both G12D and C118A amino acid substitutions (Homo sapiens, UniProt P01116, C118A/G12D). In words: KRAS G12D Coupled Nucleotide Exchange Assay. In kind it is biochemical. How it is done: KRAS G12D Coupled Nucleotide Exchange Assay
Following compound pre-incubation, purified SOS protein (aa 564-1049) and GTP (Roche 10106399001) were added to the assay wells and incubated for an additional 30 min. […] The assay plates were then read on a PerkinElmer EnVision Multilabel Reader, using AlphaScreen® technology, and data were analyzed using a 4-parameter logistic model to calculate IC50 values.

Setting [4] is: Homo sapiens, ASPC1, 2 h, read-out: 2 h p-ERK (AsPC-1 cells), IC50, AsPC-1 cells, 2 h compound treatment.

Like-named read-outs stand apart in the source and are kept apart here.

The record followed here is patent US20250179077A1, “QUINAZOLINE COMPOUNDS AND USES THEREOF AS INHIBITORS OF MUTANT KRAS PROTEINS” (AMGEN INC., priority 2022, published 2025).

Sequence of GDP-bound KRAS protein (aa 1-169), containing both G12D and C118A amino acid substitutions (P01116 1-169 isoform P01116-2 G12D/C118A): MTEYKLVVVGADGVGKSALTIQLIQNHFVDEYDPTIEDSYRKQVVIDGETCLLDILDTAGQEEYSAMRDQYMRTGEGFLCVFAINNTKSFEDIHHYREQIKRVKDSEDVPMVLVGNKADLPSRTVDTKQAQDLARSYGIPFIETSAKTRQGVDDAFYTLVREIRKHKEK
Sequence of His-tagged KRAS G12D protein (P01116 1-188 isoform P01116-2 G12D): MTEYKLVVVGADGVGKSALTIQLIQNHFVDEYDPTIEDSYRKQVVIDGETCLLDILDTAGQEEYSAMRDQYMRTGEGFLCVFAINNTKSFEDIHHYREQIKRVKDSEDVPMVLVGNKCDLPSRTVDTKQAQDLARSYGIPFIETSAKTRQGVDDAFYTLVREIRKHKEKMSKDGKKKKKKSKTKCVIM

Usually IC50 stands for the point on the concentration scale where inhibition reaches its midpoint. In the case of `C[C@@H]1C[C@@H]1c1c(Cl)cc2[nH]ncc2c1-c1ccc2c(N3CCC[C@@](C)(O)C3)nc(OC[C@@]34CCCN3C[C@H](F)C4)nc2c1F` (atropisomer, axis not shown; (aS)) [Example 110, (R)-1-((R)-7-(6-Chloro-5-((1S,2R)-2-methylcyclopropyl)-1H-indazol-4-yl)-8-fluoro-2-(((2R,7aS)-2-fluorotetrahydro-1H-pyrrolizin-7a(5H)-yl)methoxy)quinazolin-4-yl)-3-methylpiperidin-3-ol], the IC50 came out at 9 nM in assay [1], 123 nM in assay [2] (setting [4]) and 8 nM in assay [3].

For `C/C=C\c1c(Cl)cc2[nH]ncc2c1-c1ccc2c(N3CCOC[C@@](C)(O)C3)nc(OC[C@@]34CCCN3C[C@H](F)C4)nc2c1F` [Example 105, (6S)-4-(7-(6-Chloro-5-((Z)-prop-1-en-1-yl)-1H-indazol-4-yl)-8-fluoro-2-(((2R,7aS)-2-fluorotetrahydro-1H-pyrrolizin-7a(5H)-yl)methoxy)quinazolin-4-yl)-6-methyl-1,4-oxazepan-6-ol], the IC50 in assay [1] stood at 3 nM; in assay [2] (setting [4]), 32 nM; in assay [3], 3 nM.

In the case of `C#Cc1cccc2cc(O)cc(-c3c(F)cc4c(N5CCC[C@@](C)(O)C5)nc(OC[C@@]56CCCN5C[C@H](F)C6)nc4c3F)c12` (single isomer, unassigned) [Example 12], the IC50 in assay [1] was 1 nM; in assay [2] (setting [4]) it was 5 nM; in assay [3], 1 nM.

`CCc1c(F)ccc2cc(O)cc(-c3ccc4c(N5CCC[C@@](C)(O)C5)nc(OC[C@@]56CCCN5C[C@H](F)C6)nc4c3F)c12` [Example 1, (R)-1-(7-(8-Ethyl-7-fluoro-3-hydroxynaphthalen-1-yl)-8-fluoro-2-(((2R,7aS)-2-fluorotetrahydro-1H-pyrrolizin-7a(5H)-yl)methoxy)quinazolin-4-yl)-3-methylpiperidin-3-ol]: the figures for the IC50 in assay [1], in assay [2] (setting [4]) and in assay [3] were 2 nM, 48 nM and 3 nM, respectively.

For the molecule `C/C=C\c1c(Cl)cc2[nH]ncc2c1-c1ccc2c(N3CCCC4(CNC(=O)O4)C3)nc(OC[C@@]34CCCN3C[C@H](F)C4)nc2c1F` (stereo partly drawn) [Example 117, 7-(7-(6-Chloro-5-((Z)-prop-1-en-1-yl)-1H-indazol-4-yl)-8-fluoro-2-(((2R,7aS)-2-fluorotetrahydro-1H-pyrrolizin-7a(5H)-yl)methoxy)quinazolin-4-yl)-1-oxa-3,7-diazaspiro[4.5]decan-2-one], the IC50 was determined as 3 nM in assay [1], 74 nM in assay [2] (setting [4]) and 2 nM in assay [3].

`CC1CCCc2cc(O)cc(-c3ccc4c(N5CCC[C@@](C)(O)C5)nc(OC[C@@]56CCCN5C[C@H](F)C6)nc4c3F)c21` (stereo partly drawn) [Example 96, (3R)-1-(8-Fluoro-2-(((2R,7aS)-2-fluorotetrahydro-1H-pyrrolizin-7a(5H)-yl)methoxy)-7-(3-hydroxy-8-methyl-5,6,7,8-tetrahydronaphthalen-1-yl)quinazolin-4-yl)-3-methylpiperidin-3-ol]: the IC50 stood at 10 nM in assay [1], 87 nM in assay [2] (setting [4]) and 6 nM in assay [3].

As for `C/C=C\c1c(C)cc2[nH]ncc2c1-c1ccc2c(N3CCOC[C@@](C)(O)C3)nc(OC[C@@]34CCCN3C[C@H](F)C4)nc2c1F` [Example 106, (6S)-4-(8-Fluoro-2-(((2R,7aS)-2-fluorotetrahydro-1H-pyrrolizin-7a(5H)-yl)methoxy)-7-(6-methyl-5-((Z)-prop-1-en-1-yl)-1H-indazol-4-yl)quinazolin-4-yl)-6-methyl-1,4-oxazepan-6-ol], the IC50 in assay [1] came out at 7 nM; in assay [2] (setting [4]) it was 87 nM; in assay [3] it was 4 nM.

`CCc1c(F)ccc2cc(O)cc(-c3c(F)cc4c(N5CCC[C@@](C)(O)C5)nc(OC[C@@]56CCCN5C[C@H](F)C6)nc4c3F)c12` (single isomer, unassigned) [Example 2]: the IC50 in assay [1] is 1 nM; in assay [2] (setting [4]) it was 9 nM; in assay [3], 1 nM.

`CCc1c(F)ccc2cc(O)cc(-c3c(O)cc4c(N5CCC[C@@](C)(O)C5)nc(OC[C@@]56CCCN5C[C@H](F)C6)nc4c3F)c12` (single isomer, unassigned) [Example 27]: the IC50 is 1 nM in assay [1], 18 nM in assay [2] (setting [4]) and 1 nM in assay [3].

With `C/C=C\c1c(Cl)cc2[nH]ncc2c1-c1c(F)cc2c(N3CCC[C@@](C)(O)C3)nc(OC[C@@]34CCCN3C[C@H](F)C4)nc2c1F` (single isomer, unassigned) [Example 120], the IC50 in assay [1] turned out to be 4 nM; in assay [2] (setting [4]) it was 35 nM; in assay [3], 3 nM.

For the molecule `CCc1c(F)ccc2cc(N)cc(-c3c(F)cc4c(N5CCCC6(CCO6)C5)nc(OC[C@@]56CCCN5C[C@H](F)C6)nc4c3F)c12` (stereo partly drawn) [Example 75, 4-(6,8-Difluoro-2-(((2R,7aS)-2-fluorotetrahydro-1H-pyrrolizin-7a(5H)-yl)methoxy)-4-(1-oxa-6-azaspiro[3.5]nonan-6-yl)quinazolin-7-yl)-5-ethyl-6-fluoronaphthalen-2-amine], the IC50 in assay [1] is 154 nM; in assay [2] (setting [4]), 500 nM; in assay [3] it was 9 nM.

For the molecule `CCc1c(F)ccc2cc(O)cc(-c3c(F)cc4c(N5CCCOCC5)nc(OC[C@@]56CCCN5C[C@H](F)C6)nc4c3F)c12` [Example 9, 4-(6,8-Difluoro-2-(((2R,7aS)-2-fluorotetrahydro-1H-pyrrolizin-7a(5H)-yl)methoxy)-4-(1,4-oxazepan-4-yl)quinazolin-7-yl)-5-ethyl-6-fluoronaphthalen-2-ol], the IC50 in assay [1] was 4 nM; in assay [2] (setting [4]), 259 nM; in assay [3], 3 nM.

In the case of `C#Cc1c(F)ccc2cc(N)cc(-c3c(F)cc4c(N5CCOCC(C)(O)C5)nc(OC[C@@]56CCCN5C[C@H](F)C6)nc4c3F)c12` (stereo partly drawn) [Example 70, 4-(7-(3-Amino-8-ethynyl-7-fluoronaphthalen-1-yl)-6,8-difluoro-2-(((2R,7aS)-2-fluorotetrahydro-1H-pyrrolizin-7a(5H)-yl)methoxy)quinazolin-4-yl)-6-methyl-1,4-oxazepan-6-ol], the IC50 stood at 19 nM in assay [1], 185 nM in assay [2] (setting [4]) and 4 nM in assay [3].

`C#Cc1cccc2cc(O)cc(-c3ccc4c(N5CC6CC(O)C(C6)C5)nc(OC[C@@]56CCCN5C[C@H](F)C6)nc4c3F)c12` (single isomer, unassigned) [Example 16]: the IC50 in assay [1] was determined as 2 nM; in assay [2] (setting [4]) it was 132 nM; in assay [3], 2 nM.

Regarding `CC1(O)COCCN(c2nc(OC[C@@]34CCCN3C[C@H](F)C4)nc3c(F)c(-c4cc(O)cc5ccc(F)c(F)c45)c(F)cc23)C1` (single isomer, unassigned) [Example 32], the IC50 in assay [1] worked out at 5 nM; in assay [2] (setting [4]), 25 nM; in assay [3] it was 3 nM.

For the molecule `CCc1c(F)ccc2cc(O)cc(-c3ccc4c(N5CCCC6(CNC(=O)C6)C5)nc(OC[C@@]56CCCN5C[C@H](F)C6)nc4c3F)c12` (stereo partly drawn) [Example 53, 7-(7-(8-Ethyl-7-fluoro-3-hydroxynaphthalen-1-yl)-8-fluoro-2-(((2R,7aS)-2-fluorotetrahydro-1H-pyrrolizin-7a(5H)-yl)methoxy)quinazolin-4-yl)-2,7-diazaspiro[4.5]decan-3-one], the IC50 in assay [1] amounted to 3 nM; in assay [2] (setting [4]), 251 nM; in assay [3] it was 7 nM.

Consider `C#Cc1c(F)ccc2cc(O)cc(-c3c(F)cc4c(N5CCC[C@@](C)(O)C5)nc(OC[C@@]56CCCN5C[C@H](F)C6)nc4c3F)c12` (single isomer, unassigned) [Example 13], for which the IC50 was 968 nM in assay [1]; 205 nM in assay [2] (read-out: 2 h p-ERK (AsPC-1 cells), IC50, AsPC-1 cells, 2 h compound treatment); 1254 nM in assay [3].

`CCC1CCCc2cc(O)cc(-c3ccc4c(N5CCC[C@@](C)(O)C5)nc(OC[C@@]56CCCN5C[C@H](F)C6)nc4c3F)c21` (stereo partly drawn) [Example 95, (3R)-1-(7-(8-Ethyl-3-hydroxy-5,6,7,8-tetrahydronaphthalen-1-yl)-8-fluoro-2-(((2R,7aS)-2-fluorotetrahydro-1H-pyrrolizin-7a(5H)-yl)methoxy)quinazolin-4-yl)-3-methylpiperidin-3-ol]: the IC50 in assay [1] amounted to 12 nM; in assay [2] (setting [4]) it was 180 nM; in assay [3] it was 9 nM.

`C[C@@]1(O)COCCN(c2nc(OC[C@@]34CCCN3C[C@H](F)C4)nc3c(F)c(-c4cc(O)cc5ccc(F)c(Cl)c45)ccc23)C1` (single isomer, unassigned) [Example 82]: the IC50 is 5 nM in assay [1], 24 nM in assay [2] (setting [4]) and 2 nM in assay [3].

As for `O=C1NCC2(CCCN(c3nc(OC[C@@]45CCCN4C[C@H](F)C5)nc4c(F)c(-c5cc(O)cc(Cl)c5C5CC5)ccc34)C2)O1` (stereo partly drawn) [Example 83, 7-(7-(3-Chloro-2-cyclopropyl-5-hydroxyphenyl)-8-fluoro-2-(((2R,7a5)-2-fluorotetrahydro-1H-pyrrolizin-7a(5H)-yl)methoxy)quinazolin-4-yl)-1-oxa-3,7-diazaspiro[4.5]decan-2-one], the IC50 in assay [1] came to 10 nM; in assay [2] (setting [4]), 58 nM; in assay [3], 5 nM.
